Consider 32 molecules from patent US11578061B2, “Inhibitors of LRRK2 kinase” (Halia Therapeutics, Inc., priority 2021, dated 2023).

In the assay the target is recombinant human LRRK2 (catalytic domain only [amino acids 970-2527], GST-tagged) (Homo sapiens (Human), UniProt Q5S007). Briefly: LRRK2 Enzymatic Assay. As to conditions: LRRKtide substrate, [32P]-ATP. The assay is classed as biochemical. In outline: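 GST-tagged catalytic domain (aa 970-2527) at 30 nM with 20 μM LRRKtide in HEPES pH 7.5/MgCl2 buffer, 1% DMSO; compounds (10 μM to 0.5 nM) preincubated 20 min, then [32P]-ATP added for 2 h at room temperature. P81 phosphocellulose capture; activity as % of vehicle, IC50 by curve fit.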
recombinant human LRRK2 (catalytic domain only [amino acids 970-2527], GST-tagged), sequence (Q5S007 970-2527): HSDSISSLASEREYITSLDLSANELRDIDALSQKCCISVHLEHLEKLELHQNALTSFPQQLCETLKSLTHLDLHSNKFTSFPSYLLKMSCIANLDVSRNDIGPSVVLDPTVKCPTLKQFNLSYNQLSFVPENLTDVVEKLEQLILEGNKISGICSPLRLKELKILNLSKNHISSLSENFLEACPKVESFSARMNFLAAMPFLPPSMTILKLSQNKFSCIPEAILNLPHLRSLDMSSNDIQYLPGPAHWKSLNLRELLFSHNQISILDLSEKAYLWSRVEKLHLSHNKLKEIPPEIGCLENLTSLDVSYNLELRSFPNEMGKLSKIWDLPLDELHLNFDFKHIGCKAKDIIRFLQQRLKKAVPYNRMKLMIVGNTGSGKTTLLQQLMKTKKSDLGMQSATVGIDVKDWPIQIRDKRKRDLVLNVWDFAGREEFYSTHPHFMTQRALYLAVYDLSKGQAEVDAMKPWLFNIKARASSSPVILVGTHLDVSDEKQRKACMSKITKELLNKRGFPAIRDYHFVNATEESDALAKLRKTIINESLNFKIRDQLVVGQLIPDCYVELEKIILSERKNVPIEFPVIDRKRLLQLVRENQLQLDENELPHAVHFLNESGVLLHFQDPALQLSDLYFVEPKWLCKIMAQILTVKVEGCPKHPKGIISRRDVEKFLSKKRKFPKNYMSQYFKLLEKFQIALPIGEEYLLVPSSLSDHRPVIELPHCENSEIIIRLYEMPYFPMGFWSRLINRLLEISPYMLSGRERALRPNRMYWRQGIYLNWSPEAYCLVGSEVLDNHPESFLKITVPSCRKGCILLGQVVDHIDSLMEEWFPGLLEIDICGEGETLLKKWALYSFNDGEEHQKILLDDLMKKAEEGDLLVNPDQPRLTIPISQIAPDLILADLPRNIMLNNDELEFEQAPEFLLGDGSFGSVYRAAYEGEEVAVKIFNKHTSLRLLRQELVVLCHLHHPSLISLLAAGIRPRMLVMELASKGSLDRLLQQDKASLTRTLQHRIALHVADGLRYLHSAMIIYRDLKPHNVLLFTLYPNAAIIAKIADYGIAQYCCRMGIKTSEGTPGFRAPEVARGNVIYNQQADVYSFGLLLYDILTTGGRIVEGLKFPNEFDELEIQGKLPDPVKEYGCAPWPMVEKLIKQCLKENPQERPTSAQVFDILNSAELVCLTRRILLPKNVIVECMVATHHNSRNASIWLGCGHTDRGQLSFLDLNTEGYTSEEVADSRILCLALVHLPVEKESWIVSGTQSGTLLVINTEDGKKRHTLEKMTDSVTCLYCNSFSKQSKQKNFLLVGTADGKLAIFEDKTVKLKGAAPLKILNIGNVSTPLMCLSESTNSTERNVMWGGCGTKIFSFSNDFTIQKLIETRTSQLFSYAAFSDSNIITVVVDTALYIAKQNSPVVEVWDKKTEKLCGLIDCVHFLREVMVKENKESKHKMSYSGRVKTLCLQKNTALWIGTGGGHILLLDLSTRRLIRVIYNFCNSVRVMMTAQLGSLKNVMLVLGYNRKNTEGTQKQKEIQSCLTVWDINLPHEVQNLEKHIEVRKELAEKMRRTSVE
By IC50 is commonly meant the concentration that gives 50% inhibition. `C[C@@H]1CN(c2ccc(Nc3ncc(F)c(OCC4CCC(O)CC4)n3)cc2)C[C@H](C)O1` (stereo partly drawn) [Example 124, 4-(((2-((4-((2S,6R)-2,6-dimethylmorpholino)phenyl)amino)-5-fluoropyrimidin-4-yl)oxy)methyl)cyclohexan-1-ol]: the IC50 was less than 50 nM.
With `Cc1nn(C(C)(C)C#N)cc1Nc1ncc(F)c(OC[C@H]2CC[C@H](O)CC2)n1` [Example 125, 2-(4-((5-fluoro-4-(((1R,4R)-4-hydroxycyclohexyl)methoxy)pyrimidin-2-yl)amino)-3-methyl-1H-pyrazol-1-yl)-2-methylpropanenitrile], the half-inhibitory concentration (IC50) is less than 50 nM.
In the case of `Cc1nn(C(C)(C)C#N)cc1Nc1ncc(F)c(OC[C@H]2CC[C@@H](O)CC2)n1` [Example 126, 2-(4-((5-fluoro-4-(((1S,4S)-4-hydroxycyclohexyl)methoxy)pyrimidin-2-yl)amino)-3-methyl-1H-pyrazol-1-yl)-2-methylpropanenitrile], the 50% inhibitory concentration (IC50) was less than 50 nM.
To `Cc1nn(C(C)(C)C#N)cc1Nc1ncc(F)c(OCC2CCC(O)C2)n1` (centres unmarked) [Example 127, 2-(4-((5-fluoro-4-((3-hydroxycyclopentyl)methoxy)pyrimidin-2-yl)amino)-3-methyl-1H-pyrazol-1-yl)-2-methylpropanenitrile] belongs less than 50 nM; to `Cc1cnc(Nc2ccc(N3C[C@@H](C)O[C@@H](C)C3)cc2)nc1OCC1CCC(O)CC1` (stereo partly drawn) [Example 128, 4-(((2-((4-((2S,6R)-2,6-dimethylmorpholino)phenyl)amino)-5-methylpyrimidin-4-yl)oxy)methyl)cyclohexan-1-ol], less than 50 nM.
As for `C[C@@H]1CN(c2ccc(Nc3ncc(C4CC4)c(OCC4CCC(O)CC4)n3)cc2)C[C@H](C)O1` (stereo partly drawn) [Example 129, 4-(((5-cyclopropyl-2-((4-((2S,6R)-2,6-dimethylmorpholino)phenyl)amino)pyrimidin-4-yl)oxy)methyl)cyclohexan-1-ol], the IC50 was less than 50 nM.
Next, `Cc1nn(C(C)(C)C#N)cc1Nc1nccc(OCC2CCC(O)C2)n1` (centres unmarked) [Example 130, 2-(4-((4-((3-hydroxycyclopentyl)methoxy)pyrimidin-2-yl)amino)-3-methyl-1H-pyrazol-1-yl)-2-methylpropanenitrile]: 50 to 200 nM; `CCN1CCN(Cc2ccc(Nc3ncc(Cl)c(OCC4CCC(O)CC4)n3)nc2)CC1` (centres unmarked) [Example 131, 4-(((5-chloro-2-((5-((4-ethylpiperazin-1-yl)methyl)pyridin-2-yl)amino)pyrimidin-4-yl)oxy)methyl)cyclohexan-1-ol]: greater than 400 nM.
As to `CCN1CCN(c2ccc(Nc3ncc(Cl)c(OCC4CCC(O)CC4)n3)nc2)CC1` (centres unmarked) [Example 132, 4-(((5-chloro-2-((5-(4-ethylpiperazin-1-yl)pyridin-2-yl)amino)pyrimidin-4-yl)oxy)methyl)cyclohexan-1-ol], the IC50 was in the range of 50 to 200 nM.
In the case of `CCN1CCN(c2ccc(Nc3nccc(OCC4CCC(O)CC4)n3)nc2)CC1` (centres unmarked) [Example 133, 4-(((2-((5-(4-ethylpiperazin-1-yl)pyridin-2-yl)amino)pyrimidin-4-yl)oxy)methyl)cyclohexan-1-ol], the IC50 was greater than 400 nM.
To `OC1CC2(C1)CC(COc1nc(Nc3ccc(N4CCOCC4)cc3)ncc1F)C2` (centres unmarked) [Example 134, 6-(((5-fluoro-2-((4-morpholinophenyl)amino)pyrimidin-4-yl)oxy)methyl)spiro[3.3]heptan-2-ol] belongs less than 50 nM; to `Cc1nn(C(C)(C)C#N)cc1Nc1ncc(Cl)c(OCC2CCC(C)(O)CC2)n1` (centres unmarked) [Example 135, 2-(4-((5-chloro-4-((4-hydroxy-4-methylcyclohexyl)methoxy)pyrimidin-2-yl)amino)-3-methyl-1H-pyrazol-1-yl)-2-methylpropanenitrile], less than 50 nM; to `CC(C)(O)[C@H]1CC[C@H](COc2ccnc(Nc3ccc(N4CCOCC4)cc3)n2)CC1` [Example 136, 2-((1R,4R)-4-(((2-((4-morpholinophenyl)amino)pyrimidin-4-yl)oxy)methyl)cyclohexyl)propan-2-ol], 50 to 200 nM.
Take `CC(C)(O)[C@H]1CC[C@H](COc2nc(Nc3ccc(N4CCOCC4)cc3)ncc2Cl)CC1` [Example 137, 2-((1R,4R)-4-(((5-chloro-2-((4-morpholinophenyl)amino)pyrimidin-4-yl)oxy)methyl)cyclohexyl)propan-2-ol]: the IC50 was less than 50 nM.
To `Cc1nn(C(C)(C)C#N)cc1Nc1ncc(Cl)c(OC[C@H]2CC[C@H](C(C)(C)O)CC2)n1` [Example 138, 2-(4-((5-chloro-4-(((1R,4R)-4-(2-hydroxypropan-2-yl)cyclohexyl)methoxy)pyrimidin-2-yl)amino)-3-methyl-1H-pyrazol-1-yl)-2-methylpropanenitrile] belongs less than 50 nM.
On to `OCC1CCC(COc2ccnc(Nc3ccc(N4CCOCC4)cc3)n2)CC1` (centres unmarked) [Example 139, (4-(((2-((4-morpholinophenyl)amino)pyrimidin-4-yl)oxy)methyl)cyclohexyl)methanol22], for which the IC50 is 50 to 200 nM.
For the molecule `OC12CCC(COc3ccnc(Nc4ccc(N5CCOCC5)cc4)n3)(CC1)CC2` [Example 140, 4-(((2-((4-morpholinophenyl)amino)pyrimidin-4-yl)oxy)methyl)bicyclo[2.2.2]octan-1-ol], the concentration for half-maximal inhibition (IC50) was greater than 400 nM.
For the molecule `C[C@@H]1CN(c2ccc(Nc3nccc(OCC4CCC(CO)CC4)n3)cc2)C[C@H](C)O1` (stereo partly drawn) [Example 141, (4-(((2-((4-((2R,6S)-2,6-dimethylmorpholino)phenyl)amino)pyrimidin-4-yl)oxy)methyl)cyclohexyl)methanol], the IC50 was in the range of 50 to 200 nM.
For the molecule `C[C@@H]1CN(c2ccc(Nc3nccc(OCC45CCC(O)(CC4)CC5)n3)cc2)C[C@H](C)O1` [Example 142, 4-(((2-((4-((2S,6R)-2,6-dimethylmorpholino)phenyl)amino)pyrimidin-4-yl)oxy)methyl)bicyclo[2.2.2]octan-1-ol], the IC50 was greater than 400 nM.
On to `C[C@@H]1CN(c2ccc(Nc3ncc(F)c(OCC45CCC(O)(CC4)CC5)n3)cc2)C[C@H](C)O1` [Example 143, 4-(((2-((4-((2S,6R)-2,6-dimethylmorpholino)phenyl)amino)-5-fluoropyrimidin-4-yl)oxy)methyl)bicyclo[2.2.2]octan-1-ol], for which the IC50 fell in the range of 50 to 200 nM.
Turning to `CC(C)(O)[C@H]1CC[C@H](COc2nc(Nc3ccc(N4CCOCC4)cc3)ncc2F)CC1` [Example 144, 2-((1R,4R)-4-(((5-fluoro-2-((4-morpholinophenyl)amino)pyrimidin-4-yl)oxy)methyl)cyclohexyl)propan-2-ol], the IC50 was 50 to 200 nM.
As for `Cc1nn(C(C)(C)C#N)cc1Nc1ncc(Cl)c(OCC2CCC(NC3CC(F)(F)C3)CC2)n1` (centres unmarked) [Example 145, 2-(4-((5-chloro-4-((4-((3,3-difluorocyclobutyl)amino)cyclohexyl)methoxy)pyrimidin-2-yl)amino)-3-methyl-1H-pyrazol-1-yl)-2-methylpropanenitrile], the IC50 is less than 50 nM.
Turning to `Clc1cnc(Nc2ccc(N3CCOCC3)cc2)nc1OCC1CCCCC1` [Example 147, 5-chloro-4-(cyclohexylmethoxy)-N-(4-morpholinophenyl)pyrimidin-2-amine], the IC50 was less than 50 nM.
Take `Clc1cnc(Nc2ccc(N3CCOCC3)cc2)nc1OCC1CCOCC1` [Example 148, 5-chloro-N-(4-morpholinophenyl)-4-((tetrahydro-2H-pyran-4-yl)methoxy)pyrimidin-2-amine]: the IC50 is less than 50 nM.
Next, `Cc1nn(C(C)(C)C#N)cc1Nc1ncc(Cl)c(OCC2CC(C)OC(C)C2)n1` (centres unmarked) [Example 149, 2-(4-((5-chloro-4-((2,6-dimethyltetrahydro-2H-pyran-4-yl)methoxy)pyrimidin-2-yl)amino)-3-methyl-1H-pyrazol-1-yl)-2-methylpropanenitrile]: less than 50 nM; `Cc1nn(C2CC(C#N)C2)cc1Nc1ncc(Cl)c(OCC2CCOC(C)(C)C2)n1` (centres unmarked) [Example 150, 3-(4-((5-chloro-4-((2,2-dimethyltetrahydro-2H-pyran-4-yl)methoxy)pyrimidin-2-yl)amino)-3-methyl-1H-pyrazol-1-yl)cyclobutane-1-carbonitrile]: 50 to 200 nM.
For the molecule `Cc1nn(C2CC(C#N)C2)cc1Nc1ncc(Cl)c(OCC2CC3(COC3)C2)n1` (centres unmarked) [Example 151, 3-(4-((4-((2-oxaspiro[3.3]heptan-6-yl)methoxy)-5-chloropyrimidin-2-yl)amino)-3-methyl-1H-pyrazol-1-yl)cyclobutane-1-carbonitrile], the IC50 is less than 50 nM.
Regarding `COc1cnc(Nc2ccc(N3CCOCC3)cc2)nc1OCC1CCCCC1` [Example 152, 4-(cyclohexylmethoxy)-5-methoxy-N-(4-morpholinophenyl)pyrimidin-2-amine], the IC50 is less than 50 nM.
Take `FC1(F)CCC(COc2nc(Nc3ccc(N4CCOCC4)cc3)ncc2Cl)CC1` [Example 153, 5-chloro-4-((4,4-difluorocyclohexyl)methoxy)-N-(4-morpholinophenyl)pyrimidin-2-amine]: the IC50 lay in the range of 50 to 200 nM.
In the case of `Cc1nn(C(C)(C)C#N)cc1Nc1ncc(Cl)c(OCC2CC(F)(F)C2)n1` [Example 154, 2-(4-((5-chloro-4-((3,3-difluorocyclobutyl)methoxy)pyrimidin-2-yl)amino)-3-methyl-1H-pyrazol-1-yl)-2-methylpropanenitrile], the IC50 is less than 50 nM.
As to `Cc1nn(C(C)(C)C#N)cc1Nc1ncc(C#N)c(OCC2CC(F)(F)C2)n1` [Example 155, 2-((1-(2-cyanopropan-2-yl)-3-methyl-1H-pyrazol-4-yl)amino)-4-((3,3-difluorocyclobutyl)methoxy)pyrimidine-5-carbonitrile], the IC50 lay in the range of 50 to 200 nM.
Next, `COc1cnc(Nc2ccc(N3CCOCC3)cc2)nc1OCC1CCC(F)(F)CC1` [Example 156, 4-((4,4-difluorocyclohexyl)methoxy)-5-methoxy-N-(4-morpholinophenyl)pyrimidin-2-amine]: 50 to 200 nM.
